EC50 data for 20 compounds are collected here from patent US20240018145A1, “[…]-DEPENDENT EN[…] TREATING OR […]” (priority 2020, published 2024).

The subject of this assay is FLU A (PR/8/34). Kind of assay: Flu A Neuraminidase Antiviral Assay. It is filed as cell-based.

In general, EC50 refers to the concentration that produces a half-maximal response. Read a low EC50 as higher potency in that assay.

SMILES strings stand for the structures. Where two headings read alike, the source gives them in different places.

In turn, `CN1C(=O)c2c(O)c(=O)ccn2N2C(c3ccccc3)C3CCCC(C3)C12` (single isomer, unassigned) [Compound 11A, 4-hydroxy-6-methyl-12-phenyl-6,6a,7,8,9,10,11,12-octahydro-7,11-methanopyrido[1′,2′:1,6][1,2,4]triazino[2,3-a]azocine-3,5-dione] gave a concentration for a half-maximal effect (EC50) (MDCK, 48 h) above 8100 nM. In turn, `Cc1ccccc1C1C(CC2CC2(F)F)CCC2N(C)C(=O)c3c(O)c(=O)ccn3N12` (single isomer, unassigned) [Compound 88C] registered an EC50 of 4 nM.

On to `CN1C(=O)c2c(O)c(=O)ccn2N2C(c3ccccc3)CCCC12C` (single isomer, unassigned) [Compound 59B, 7-hydroxy-4a,5-dimethyl-1-phenyl-1,2,3,4,4a,5-hexahydrodipyrido[1,2-b:2′,1′-f][1,2,4]triazine-6,8-dione], for which a half-maximal response (EC50) required 12.1 nM.

`CN1C(=O)c2c(O)c(=O)ccn2N2[C@H](c3ccccc3)[C@H](OCC3(C#N)CCC3)CC[C@@H]12` [Compound 159, 1-((((1R,2R,4aS)-7-hydroxy-5-methyl-6,8-dioxo-1-phenyl-1,2,3,4,4a,5,6,8-octahydrodipyrido[1,2-b:2′,1′-f][1,2,4]triazin-2-yl)oxy)methyl)cyclobutane-1-carbonitrile] displayed a concentration giving a half-maximal response (EC50) (MDCK, 48 h) of 210 nM. For `Cc1ccnc(C2(C)CCCC3N(CC(F)(F)F)C(=O)c4c(O)c(=O)ccn4N32)c1` (single isomer, unassigned) [Compound 50A, 7-hydroxy-1-methyl-1-(4-methylpyridin-2-yl)-5-(2,2,2-trifluoroethyl)-1,2,3,4,4a,5-hexahydrodipyrido[1,2-b:2′,1′-f][1,2,4]triazine-6,8-dione], the EC50 was above 8100 nM. The same measure, in the same setting: under `CCCC1CCC2C(n3ccc(=O)c(O)c3C(=O)N2C)C1(O)c1ccccc1` (single isomer, unassigned) [Compound 166B, 1,7-dihydroxy-5-methyl-1-phenyl-2-propyl-1,3,4,4a,5,11a-hexahydro-2H-pyrido[1,2-a]quinoxaline-6,8-dione] stands above 8100 nM; under `CN1C(=O)c2c(O)c(=O)ccn2N2C(c3ccccc3)C(c3cc(F)c(F)cc3F)CCC12` (single isomer, unassigned) [Compound 86C, 7-hydroxy-5-methyl-1-phenyl-2-(2,4,5-trifluorophenyl)-1,2,3,4,4a,5-hexahydrodipyrido[1,2-b:2′,1′-f][1,2,4]triazine-6,8-dione], 230 nM; under `CCCC1CCC2N(C)C(=O)c3c(O)c(=O)ccn3N2C1c1ccccc1C` (single isomer, unassigned) [Compound 92A, 7-hydroxy-5-methyl-2-propyl-1-(o-tolyl)-1,2,3,4,4a,5-hexahydrodipyrido[1,2-b:2′,1′-f][1,2,4]triazine-6,8-dione], 4570 nM. `CN1C(=O)c2c(O)c(=O)ccn2N2C(c3ccccc3)C(CC3CC3(F)F)CCC12` (single isomer, unassigned) [Compound 114A, 2-((2,2-difluorocyclopropyl)methyl)-7-hydroxy-5-methyl-1-phenyl-1,2,3,4,4a,5-hexahydrodipyrido[1,2-b:2′,1′-f][1,2,4]triazine-6,8-dione] returned a concentration giving a half-maximal response (EC50) above 8100 nM.

`COc1ccccc1C1C(CC(F)(F)F)CCC2N(C)C(=O)c3c(O)c(=O)ccn3N12` (single isomer, unassigned) [Compound 125A, 7-hydroxy-1-(2-methoxyphenyl)-5-methyl-2-(2,2,2-trifluoroethyl)-1,2,3,4,4a,5-hexahydrodipyrido[1,2-b:2′,1′-f][1,2,4]triazine-6,8-dione] gave a half-maximal effective concentration (EC50) of 1020 nM. Regarding `Cc1ccccc1C1C(CC(F)(F)F)CCC2(C)N(C)C(=O)c3c(O)c(=O)ccn3N12` (single isomer, unassigned) [Compound 87B, 7-hydroxy-4a,5-dimethyl-1-(o-tolyl)-2-(2,2,2-trifluoroethyl)-1,2,3,4,4a,5-hexahydrodipyrido[1,2-b:2′,1′-f][1,2,4]triazine-6,8-dione], a half-maximal effect (EC50) was put at 3.6 nM. Consider `CN1C(=O)c2c(O)c(=O)ccn2N2C(c3ccccc3)CCCC12` (single isomer, unassigned) [Compound 1B, 7-hydroxy-5-methyl-1-phenyl-1,2,3,4,4a,5-hexahydrodipyrido[1,2-b:2′,1′-f][1,2,4]triazine-6,8-dione], for which a half-maximal response (EC50) required 39.6 nM. Turning to `CN1C(=O)c2c(O)c(=O)ccn2N2C(c3ccccc3Cl)C(CCO)CCC12` (centres unmarked) [Compound 66A, 1-(2-chlorophenyl)-7-hydroxy-2-(2-hydroxyethyl)-5-methyl-1,2,3,4,4a,5-hexahydrodipyrido[1,2-b:2′,1′-f][1,2,4]triazine-6,8-dione], the concentration giving a half-maximal response (EC50) was above 8100 nM. On the same count and under the same terms, under `CN1C(=O)c2c(O)c(=O)ccn2N2C1CCCC2(C)c1ccccc1Cl` (single isomer, unassigned) [Compound 20A, 1-(2-chlorophenyl)-7-hydroxy-1,5-dimethyl-1,2,3,4,4a,5-hexahydrodipyrido[1,2-b:2′,1′-f][1,2,4]triazine-6,8-dione] stands 564 nM; under `CC1(c2ccccc2)CCCC2N(CCC(F)(F)F)C(=O)c3c(O)c(=O)ccn3N21` (single isomer, unassigned) [Compound 38A, 7-hydroxy-1-methyl-1-phenyl-5-(3,3,3-trifluoropropyl)-1,2,3,4,4a,5-hexahydrodipyrido[1,2-b:2′,1′-f][1,2,4]triazine-6,8-dione], above 8100 nM. For the compound `CC(C)O[C@@H]1CC[C@H]2N(C)C(=O)c3c(O)c(=O)ccn3N2[C@@H]1c1ccccc1` [Compound 156, (1R,2R,4aS)-7-hydroxy-2-isopropoxy-5-methyl-1-phenyl-1,2,3,4,4a,5-hexahydrodipyrido[1,2-b:2′,1′-f][1,2,4]triazine-6,8-dione], for the setting “MDCK, 48 h”, the EC50 turned out to be 38 nM. Compound `CC1CC2N(C)C(=O)c3c(O)c(=O)ccn3N2C(C)(c2ccccc2)C1` (single isomer, unassigned) [Compound 43D, 7-hydroxy-1,3,5-trimethyl-1-phenyl-1,2,3,4,4a,5-hexahydrodipyrido[1,2-b:2′,1′-f][1,2,4]triazine-6,8-dione] showed a half-maximal effective concentration (EC50) of 7.8 nM.

Take `Cc1ccnc(C2(C)CCCC3N(CC(F)(F)F)C(=O)c4c(O)c(=O)ccn4N32)c1` (single isomer, unassigned) [Compound 50B, 7-hydroxy-1-methyl-1-(4-methylpyridin-2-yl)-5-(2,2,2-trifluoroethyl)-1,2,3,4,4a,5-hexahydrodipyrido[1,2-b:2′,1′-f][1,2,4]triazine-6,8-dione]: the EC50 was found to be 9 nM. Still for that read-out and setting: under `CN1C(=O)c2c(O)c(=O)ccn2N2C1CCC1(CCC(C(F)(F)F)CC1)C2c1ccccc1` (single isomer, unassigned) [Compound 73D, 7′-hydroxy-5′-methyl-1′-phenyl-4-(trifluoromethyl)-3′,4′,4a′,5′-tetrahydro-1′H-spiro[cyclohexane-1,2′-dipyrido[1,2-b:2′,1′-f][1,2,4]triazine]-6′,8′-dione] stands 6.6 nM; under `CN1C(=O)c2c(O)c(=O)ccn2N2C(c3cc(F)ccc3C(F)(F)F)CCCC12` (single isomer, unassigned) [Compound 13A, 1-(5-fluoro-2-(trifluoromethyl)phenyl)-7-hydroxy-5-methyl-1,2,3,4,4a,5-hexahydro-dipyrido[1,2-b:2′,1′-f][1,2,4]triazine-6,8-dione], above 8100 nM.
